For 21 compounds, EC50 and Ki results are on record in US7056935B2, “Rotamase enzyme activity inhibitors” (GPI NIL Holdings, Inc., priority 1995, dated 2006).

For assay [1], the system named is chick dorsal root ganglia (DRG) explants. Description: Chick dorsal root ganglion cultures and neurite outgrowth. In kind it is cell-based. The conditions noted are these: read-out: ED50, nM Neurite Outgrowth in DRG Cultures. The procedure: Dorsal root ganglia were dissected from chick embryos of ten day gestation. Whole ganglion explants were cultured on thin layer Matrigel-coated 12 well plates with Liebovitz L15 plus high glucose media supplemented with 2 mM glutamine and 10% fetal calf serum, and also containing 10 μM cytosine β-D arabinofuranoside (Ara C) at 37° C. in an environment containing 5% CO2. Twenty-four hours later, the DRGs were treated with various concentrations of nerve growth factor (NGF), immunophilin ligands or combinations of NGF plus drugs. Forty-eight hours after drug treatment, the ganglia were visualized under phase contrast or Hoffman Modulation contrast with a Zeiss Axiovert inverted microscope. Photomicrographs of the explants were made, and neurite outgrowth was quantitated. Neurites longer than the DRG diameter were counted as positive, with total number of neurites quantitated per each experimental condition. Three to four DRGs were cultured per well, and each treatment was performed in duplicate.

The target of a further assay is FKBP (Homo sapiens, UniProt P62942). The assay is described as follows: Ki test procedure: inhibition of peptidyl-prolyl isomerase (rotamase) activity, chymotrypsin-coupled assay. The conditions noted are these: apparent Ki, substrate N-succinyl-Ala-Phe-Pro-Phe-p-nitroanilide. In kind it is biochemical.
Chain of FKBP (P62942 whole entry): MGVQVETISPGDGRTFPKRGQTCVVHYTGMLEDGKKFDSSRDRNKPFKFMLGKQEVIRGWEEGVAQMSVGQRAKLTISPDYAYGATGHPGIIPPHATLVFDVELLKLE
[2] abbreviates: drug alone, chick embryo DRG explants, 48 hours after drug treatment.

Read-outs that look alike come from different tables or passages of the source.

For `O=C(C(=O)N1CCCCC1C(=O)OCc1ccccc1)c1ccccc1` (centres unmarked) [Compound 1, Benzyl N-(phenylglyoxyl)-2-piperidinecarboxylate], in assay [1] (Gallus gallus, 48 h), the EC50 lay within 25 to 100 nM.

Regarding `O=C(C(=O)N1CCCCC1C(=O)OCCCc1ccccc1)c1ccccc1` (centres unmarked) [Compound 2, 3-Phenyl-1-propyl N-(phenylglyoxyl)-2-piperidinecarboxylate], in assay [1] (Gallus gallus, 48 h), the EC50 was 10 to 20 nM.

As to `COc1ccc(CCCCOC(=O)C2CCCCN2C(=O)C(=O)c2ccccc2)cc1` (centres unmarked) [Compound 3], the EC50 in assay [1] (Gallus gallus, 48 h) amounted to 0.5 nM.

As to `O=C(C(=O)N1CCCCC1C(=O)OCCCCc1ccccc1)c1ccccc1` (centres unmarked) [Compound 4, 4-Phenyl-1-butyl N-(phenylglyoxyl)-2-piperidinecarboxylate], in assay [1] (Gallus gallus, 48 h), the EC50 fell in the range of 25 to 100 nM.

In the case of `O=C(C(=O)N1CCCCC1C(=O)OCCc1ccccc1)c1ccccc1` (centres unmarked) [Compound 5, 2-Phenyl-1-ethyl N-(phenylglyoxyl)-2-piperidinecarboxylate], the EC50 in assay [1] (Gallus gallus, 48 h) fell in the range of 25 to 100 nM.

With `COC(=O)C(=O)N1CCCCC1C(=O)OCc1ccccc1` (centres unmarked) [Compound 7, Benzyl N-(methoxyglyoxyl)-2-piperidinecarboxylate], in assay [1] (Gallus gallus, 48 h), the EC50 is more than 10000 nM.

For `COc1cc(C(=O)C(=O)N2CCCCC2C(=O)OCCCCc2ccccc2)cc(OC)c1OC` [Compound 14, 4-Phenylbutyl (S)-N-(3,4,5-trimethoxyphenylglyoxyl)pipecolate], the EC50 in assay [1] (Gallus gallus, 48 h) is 1 to 5 nM.

For `COc1ccc(CCCCOC(=O)C2CCCCN2C(=O)C(=O)c2cc(OC)c(OC)c(OC)c2)cc1` [Compound 16, 4-(4-Methoxyphenyl)butyl (S)-N-(3,4,5-trimethoxyphenylglyoxyl)pipecolate], in assay [1] (Gallus gallus, 48 h), the EC50 was found to be 0.03 nM.

Regarding `CCC(C)(C)C(=O)C(=O)N1CCC[C@H]1C(=O)OCCCc1ccccc1` [Compound 17, 3-phenyl-1-propyl (2S)-1-(3,3-dimethyl-1,2-dioxopentyl)-2-pyrrolidinecarboxylate], the EC50 in assay [1] (Gallus gallus, 48 h) was found to be 0.053 nM.

As to `CCC(C)(C)C(=O)C(=O)N1CCC[C@H]1C(=O)OC/C=C/c1ccccc1` [Compound 18, 3-phenyl-1-prop-2-(E)-enyl (2S)-1-(3,3-dimethyl-1,2-dioxopentyl)-2-pyrrolidinecarboxylate], the EC50 in assay [1] (Gallus gallus, 48 h) turned out to be 105 nM.

As for `CCC(C)(C)C(=O)C(=O)N1CCC[C@H]1C(=O)OCCCc1cc(OC)c(OC)c(OC)c1` [Compound 19, 3-(3,4,5-trimethoxyphenyl)-1-propyl (2S)-1-(3,3-dimethyl-1,2-dioxopentyl)-2-pyrrolidine-carboxylate], the Ki at FKBP (Table I) came out at 25 nM. Further, the EC50 in assay [1] (Gallus gallus, 48 h) came to 80 nM.

Take `CCC(C)(C)C(=O)C(=O)N1CCC[C@H]1C(=O)OC/C=C/c1cc(OC)c(OC)c(OC)c1` [Compound 20, 3-(3,4,5-trimethoxyphenyl)-1-prop-2-(E)-enyl (2S)-1-(3,3-dimethyl-1,2-dioxopentyl)-2-pyrrolidine carboxylate]: the Ki on FKBP (Table I) turned out to be 125 nM. In assay [1] (Gallus gallus, 48 h), the EC50 is 190 nM.

In the case of `CCC(C)(C)C(=O)C(=O)N1CCC[C@H]1C(=O)OC/C=C/c1ccc(Cl)c(Cl)c1` [Compound 21, 3-(4,5-Dichlorophenyl)-1-prop-2-(E)-enyl (2S)-1-(3,3-dimethyl-1,2-dioxopentyl)-2-pyrrolidine carboxylate], the Ki on FKBP (Table I) was 2500 nM. The EC50 in assay [1] (Gallus gallus, 48 h) came out at 85 nM.

Turning to `CCC(C)(C)C(=O)C(=O)N1CCC[C@H]1C(=O)OC/C=C/c1cc(OC)ccc1OC` [Compound 22, 3-(2,5-Dimethoxyphenyl)-1-prop-2(E)-enyl (2S)-1-(3,3-dimethyl-1,2-dioxopentyl)-2-pyrrolidinecarboxylate], in assay [1] (Gallus gallus, 48 h), the EC50 was found to be 0.8 nM.

As for `CCC(C)(C)C(=O)C(=O)N1CCC[C@H]1C(=O)OCCCc1cccnc1` [Compound 23, 3-(3-Pyridyl)-1-propyl (2S)-1-(3,3-dimethyl-1,2-dioxopentyl)-2-pyrrolidinecarboxylate], the EC50 in assay [1] (Gallus gallus, 48 h) came out at 0.05 nM.

In the case of `O=C(C(=O)N1CCC[C@H]1C(=O)OCCCc1ccccc1)C1CCCCC1` [Compound 24, 3-Phenyl-1-propyl (2S)-1-(cyclohexylglyoxyl)-2-pyrrolidinecarboxylate], in assay [1] (Gallus gallus, 48 h), the EC50 turned out to be 0.13 nM.

For `O=C(C(=O)N1CCCCC1C(=O)OC(CCCc1ccccc1)CCCc1ccccc1)c1ccccc1` (centres unmarked) [Compound 28], the EC50 in assay [1] (setting [2]) amounted to 0.0044 nM.

On to `COc1cc(C(=O)C(=O)N2CCCCC2C(=O)OC(CCCc2ccccc2)CCCc2ccccc2)cc(OC)c1OC` [Compound 29, 1,7-Diphenyl-4-heptyl (S)-N-(3,4,5-trimethoxyphenylglyoxyl)pipecolate], for which the EC50 in assay [1] (setting [2]) is reported as 0.61 nM.

In the case of `COc1cc(C(=O)C(=O)N2CCCCC2C(=O)OC(CCCc2ccccc2)CCc2cccnc2)cc(OC)c1OC` [Compound 30, 1-Phenyl-6-(3-pyridyl)-3-hexyl (S)-N-(3,4,5-trimethoxyphenylglyoxyl)pipecolate], the EC50 in assay [1] (Gallus gallus, 48 h) is 0.95 nM.

`COc1cc(C(=O)C(=O)N2CCCCC2C(=O)OC(CCCc2ccccc2)CCCc2ccccn2)cc(OC)c1OC` [Compound 31, 1-Phenyl-7-(2-pyridyl)-4-heptyl (S)-N-(3,4,5-trimethoxyphenylglyoxyl)pipecolate]: at FKBP (Table II), the Ki was determined as 1 nM. Besides, in assay [1] (Gallus gallus, 48 h), the EC50 is 25 nM.

As to `COc1ccc(CCCC(CCCc2ccccc2)OC(=O)C2CCCCN2C(=O)C(=O)c2cc(OC)c(OC)c(OC)c2)cc1` [Compound 32, 1-Phenyl-7-(4-methoxyphenyl)-4-heptyl (S)-N-(3,4,5-trimethoxyphenylglyoxyl)-pipecolate], on FKBP (Table II), the Ki was 3 nM. The EC50 in assay [1] (Gallus gallus, 48 h) came to 0.5 nM.
